Reference: patent publication US20220331327A1, “THE USE OF PARAXANTHINE TO IMPROVE PERFORMANCE IN VIDEO GAMERS” (priority 2021, published 2022)

Key:
Assay type in all cases: in vivo, human
healthy subject [1] = test: Arcade video game GALAGA, game score; settings: 300 mg prior to playing GALAGA; one subject
Excerpt: Each of the three game sessions were separated by a one-week washout period. In […], the player mans a lone […] bottom of the screen, which must prevent the […] forces from destroying all of mankind. The objective of each stage is to defeat all of the […] aliens, which will fly into formation from the top and sides of the screen.

[2] = test system: healthy men and women playing video games; test: Profile of Mood States (POMS) during gaming; settings: 200 mg daily; for Tension, mean ± SD / Total Mood Disturbance (Tension + Depression + Anger + Fatigue + Confusion − Vigor), Mean ± SD / Vigor, mean ± SD / Tension, Mean of visit / Total Mood Disturbance, Mean of visit / Vigor, Mean of visit: n = 5; for Tension, Mean of visit / Total Mood Disturbance, Mean of visit / Vigor, Mean of visit: mean of 0, 1, 2 h; for Tension, Δ Baseline / Total Mood Disturbance, Δ Baseline / Vigor, Δ Baseline: versus baseline; for Tension, Δ PLA / Total Mood Disturbance, Δ PLA / Vigor, Δ PLA: versus placebo
Experimental: The effectiveness of study-products (paraxanthine and placebo) was assessed by measuring in-game performance, cognition during gaming (Stroop Test) and mood status during gaming (Profile of Mood States (POMS)). The POMS was completed pre-dose, after 60 minutes of gaming and immediately after completing 120 minutes of video gaming during all study visits. The POMS measured six subscales of mood, including tension-anxiety, depression-dejection, anger-hostility, vigor-activity, fatigue-inertia, and confusion-bewilderment. Subjects were asked to use a 5-point Likert scale (0=not at all, 1=a little, 2=moderately, 3=quite a bit, 4=extremely), to review a list of 65 words (feelings) and rank the degree to which they are experiencing that feeling at the moment. Since high vigor-activity scores reflect good moods or emotions, whereas low scores in the other subscales reflect a good mood or emotion, the total mood disturbance (TMD) score was computed by adding the five negative subscale scores (tension-anxiety, depression-dejection, anger-hostility, fatigue-inertia, and confusion-bewilderment) and subtracting the vigor-activity score. Higher numeric values of the TMD score indicate a greater degree of mood disturbance.

[3] = test system: healthy men and women playing video games; test: Stroop Color and Word Test during gaming; settings: 200 mg daily
Experimental: The effectiveness of study-products (paraxanthine and placebo) was assessed by measuring in-game performance, cognition during gaming (Stroop Test) and mood status during gaming (Profile of Mood States (POMS)). The Stroop Color and Word Test (SCWT) was administered after 0, 3, and 6 six weeks of supplementation to assess cognitive performance during gaming throughout the study protocol. The Stroop Test was completed pre-dose, after 60 minutes of gaming and immediately after completing 120 minutes of video gaming during all study visits. The SCWT is a neuropsychological test that follows the procedures of Stroop (Stroop 1935). Briefly, the SCWT (with congruency) was administered for five continuous minutes via an online software application. One of four words (red, yellow, green, blue) appeared at random, until a selection was made, then a new word appeared at random. Subjects selected the response which matches the color of the ink of the randomly selected word (not the color that the word described). The number of correct answers served as the basis of a total Stroop score.

healthy subject [4] = test: Video game Tetris, game performance measured by play time; settings: 100 mg prior to playing Tetris; one subject
Excerpt: Each of the three games were separated by a one-week washout period. In Tetris, the player brings down blocks from the top of the screen. The player can move the blocks around, either left to right and/or you can rotate them. The blocks fall at a certain rate, but the player can make them fall faster if he/she is sure of the positioning. The game Tetris becomes more challenging the longer you play. It becomes faster the better the player performs. The player has to make the same decisions but under a higher level of pressure. Each time the player clears a line in Tetris, the player is awarded more points. Each time the pieces reach the top of the screen, the game is over. Game performance was measured by play time. The player was not allowed to press a button to increase the speed of the current piece's descent or cause the piece to drop and lock into place immediately, known as a “soft drop” and a “hard drop”, respectively.

[5] = 3 weeks, listed as paraxanthine
[6] = 6 weeks, listed as paraxanthine

Which “average score over 5 games” value (healthy subject [1]) does the source give for `Cn1c(=O)[nH]c2ncn(C)c2c1=O` [Paraxanthine, paraxanthine] here?
Its value is 118,702.

And the “change of average score compared to placebo” value (healthy subject [1])?
The value was “+79.4%”.

What about the “change of personal best compared to placebo” value (healthy subject [1]) of the same compound?
Its value is “+86.6%”.

And the “personal best (high score) of the 5 games” value (healthy subject [1])?
Its value is 161,070.

And the “Tension, mean ± SD” value ([2]; 3 weeks, 0 h)?
Its value is 4.0 ± 2.8.

And the “Total Mood Disturbance (Tension + Depression + Anger + Fatigue + Confusion − Vigor), Mean ± SD” value (shortened to “Total Mood Disturbance … Mean ± SD”) ([2]; 3 weeks, 0 h)?
Its value is −6.2 ± 16.6.

What about the “Vigor, mean ± SD” value ([2]; 3 weeks, 0 h) of the same compound?
The value was 20.4 ± 6.8.

And the “Tension, mean ± SD” value ([2]; 3 weeks, 1 h)?
The value was 2.0 ± 1.2.

What about the “Total Mood Disturbance … Mean ± SD” value ([2]; 3 weeks, 1 h) of the same compound?
The value was −6.8 ± 13.3.

What about the “Vigor, mean ± SD” value ([2]; 3 weeks, 1 h) of the same compound?
The value was 18.0 ± 10.0.

And the “Tension, mean ± SD” value ([2]; 3 weeks, 2 h)?
The value was 2.4 ± 1.3.

What about the “Total Mood Disturbance … Mean ± SD” value ([2]; 3 weeks, 2 h) of the same compound?
Its value is −6.4 ± 15.8.

And the “Vigor, mean ± SD” value ([2]; 3 weeks, 2 h)?
The value was 16.4 ± 10.0.

What about the “Tension, Mean of visit” value ([2]; 3 weeks) of the same compound?
Its value is 2.8.

And the “Total Mood Disturbance, Mean of visit” value ([2]; 3 weeks)?
Its value is −6.5.

What about the “Vigor, Mean of visit” value ([2]; 3 weeks) of the same compound?
The value was 18.3.

What about the “Tension, mean ± SD” value ([2]; 6 weeks, 0 h) of the same compound?
Its value is 2.6 ± 1.8.

What about the “Total Mood Disturbance … Mean ± SD” value ([2]; 6 weeks, 0 h) of the same compound?
Its value is −8.2 ± 13.8.

And the “Vigor, mean ± SD” value ([2]; 6 weeks, 0 h)?
The value was 18.6 ± 8.6.

What about the “Tension, mean ± SD” value ([2]; 6 weeks, 1 h) of the same compound?
The value was 2.0 ± 1.0.

And the “Total Mood Disturbance … Mean ± SD” value ([2]; 6 weeks, 1 h)?
The value was −11.2 ± 12.4.

And the “Vigor, mean ± SD” value ([2]; 6 weeks, 1 h)?
Its value is 18.2 ± 9.2.

And the “Tension, mean ± SD” value ([2]; 6 weeks, 2 h)?
Its value is 2.2 ± 1.3.

And the “Total Mood Disturbance … Mean ± SD” value ([2]; 6 weeks, 2 h)?
The value was −8.8 ± 13.4.

And the “Vigor, mean ± SD” value ([2]; 6 weeks, 2 h)?
Its value is 17.2 ± 9.8.

What about the “Tension, Mean of visit” value ([2]; 6 weeks) of the same compound?
Its value is 2.3.

And the “Total Mood Disturbance, Mean of visit” value ([2]; 6 weeks)?
The value was −9.4.

And the “Vigor, Mean of visit” value ([2]; 6 weeks)?
Its value is 18.0.

And the “Tension, mean ± SD” value ([2]; Baseline visit, 0 h)?
The value was 5.4 ± 2.2.

And the “Total Mood Disturbance … Mean ± SD” value ([2]; Baseline visit, 0 h)?
Its value is −2.2 ± 10.5.

What about the “Vigor, mean ± SD” value ([2]; Baseline visit, 0 h) of the same compound?
The value was 19.2 ± 5.3.

What about the “Tension, mean ± SD” value ([2]; Baseline visit, 1 h) of the same compound?
Its value is 5.6 ± 5.4.

And the “Total Mood Disturbance … Mean ± SD” value ([2]; Baseline visit, 1 h)?
The value was −2.6 ± 18.6.

And the “Vigor, mean ± SD” value ([2]; Baseline visit, 1 h)?
Its value is 17.4 ± 6.5.

What about the “Tension, mean ± SD” value ([2]; Baseline visit, 2 h) of the same compound?
The value was 2.8 ± 1.3.

And the “Total Mood Disturbance … Mean ± SD” value ([2]; Baseline visit, 2 h)?
The value was −0.4 ± 16.1.

And the “Vigor, mean ± SD” value ([2]; Baseline visit, 2 h)?
The value was 13.2 ± 6.4.

What about the “Tension, Mean of visit” value ([2]; Baseline visit) of the same compound?
Its value is 4.6.

And the “Total Mood Disturbance, Mean of visit” value ([2]; Baseline visit)?
The value was −1.7.

What about the “Vigor, Mean of visit” value ([2]; Baseline visit) of the same compound?
Its value is 16.6.

And the “Tension, Δ Baseline” value ([2]; 3 weeks)?
Its value is −39.1%.

And the “Total Mood Disturbance, Δ Baseline” value ([2]; 3 weeks)?
Its value is −282%.

What about the “Vigor, Δ Baseline” value ([2]; 3 weeks) of the same compound?
Its value is “+10.2%”.

What about the “Vigor, Δ Baseline” value [2, 5] of the same compound?
The value was 10.2%.

What about the “Tension, Δ PLA” value ([2]; 3 weeks) of the same compound?
The value was −51.7%.

And the “Total Mood Disturbance, Δ PLA” value ([2]; 3 weeks)?
The value was −166%.

What about the “Vigor, Δ PLA” value ([2]; 3 weeks) of the same compound?
The value was “+28.9%”.

And the “Vigor, Δ PLA” value [2, 5]?
The value was 28.9%.

What about the “Tension, Δ Baseline” value ([2]; 6 weeks) of the same compound?
Its value is −50.0%.

And the “Total Mood Disturbance, Δ Baseline” value ([2]; 6 weeks)?
The value was −453%.

And the “Vigor, Δ Baseline” value ([2]; 6 weeks)?
The value was “+8.4%”.

And the “Vigor, Δ Baseline” value [2, 6]?
The value was 8.4%.

And the “Tension, Δ PLA” value ([2]; 6 weeks)?
Its value is −61.0%.

What about the “Total Mood Disturbance, Δ PLA” value ([2]; 6 weeks) of the same compound?
The value was −189%.

And the “Vigor, Δ PLA” value ([2]; 6 weeks)?
The value was “+59.3%”.

And the “Vigor, Δ PLA” value [2, 6]?
Its value is 59.3%.

What about the “worsening of total mood disturbance during continued gaming” value ([2]; after 3 and 6 weeks) of the same compound?
Its value is “an effect that was not observed in the paraxanthine group”.

What about the “total mood disturbance, effect in words” value ([2]; after 3 and 6 weeks, compared to baseline and to placebo) of the same compound?
The value was “improved total mood disturbance”.

What about the “decrease of feelings of tension-anxiety compared to baseline” value ([2]; after 3 weeks) of the same compound?
The value was 39.1%.

And the “decrease of feelings of tension-anxiety compared to placebo” value ([2]; after 3 weeks)?
Its value is 51.7%.

And the “decrease of feelings of tension-anxiety compared to baseline” value ([2]; after 6 weeks)?
The value was 50%.

What about the “decrease of feelings of tension-anxiety compared to placebo” value ([2]; after 6 weeks) of the same compound?
The value was 61.0%.

What about the “course of tension with duration of play” value ([2]; the longer the subject played) of the same compound?
The value was “tension decreased in the paraxanthine group the longer the subject played”.

And the “increase in cognitive performance (Stroop test score) compared to baseline” value (from here on “increase in cognitive performance”) ([3]; 3 weeks, after one hour of gaming)?
The value was 39%.

What about the “increase in cognitive performance” value ([3]; 3 weeks, after two hours of gaming) of the same compound?
Its value is 89%.

And the “increase in cognitive performance” value ([3]; 3 weeks, pre-gaming)?
The value was 25%.

And the “increase in cognitive performance” value ([3]; 6 weeks, after one hour of gaming)?
Its value is 89%.

And the “increase in cognitive performance” value ([3]; 6 weeks, after two hours of gaming)?
The value was 119%.

And the “increase in cognitive performance” value ([3]; 6 weeks, pre-gaming)?
Its value is 25%.

What about the habituation ([3]; even after 6 weeks) of the same compound?
Its habituation is “No habituation was observed”.

And the “gaming performance (play time), effect in words” value (healthy subject [4])?
Its value is “increased gaming performance compared to placebo, and compared to caffeine intake”.
